Measurements: patent US4452812A, “Organic complex of platinum, its preparation and its use for treating malignant tumors” (Sanofi, priority 1980, dated 1984)

Test system: baboon
Assay: Preliminary toxicological study in the baboon
Format: in vivo
Parameters: creatine level / Granulocytes / Platelets: unit not given here
Protocol: In order to find out the maximum tolerable dose, two baboons, identified by no 1 and no 2, received 100 mg/kg and 150 mg/kg respectively without prehydration. Hydration was performed on baboon no 3 which received a dose of 200 mg/kg.
The compound was injected into the femoral vein during 5 to 10 minutes. Baboon No. 3 (200 mg/kg) received 700 ml of physiological serum by intravenous route. Baboons Nos. 1 and 2 received 1000 ml by sub-cutaneous route.
Gastro-intestinal toxicity was the first type of toxicity to appear and generally manifested itself 1 to 2 hours after injection of the compound. […] D0 was the day of treatment and a sample was taken before the compound was injected.
The results on D0 were therefore control values.

[1] = baboon No 1, 100 mg/kg i.v., D2
[2] = baboon No 1, 100 mg/kg i.v., D6
[3] = baboon No 1, 100 mg/kg i.v., D16
[4] = baboon No 1, 100 mg/kg i.v., D30
[5] = baboon No 1, 100 mg/kg i.v., D37
[6] = baboon No 1, 100 mg/kg i.v., D38
[7] = baboon No 1, 100 mg/kg i.v., D41
[8] = baboon No 1, 100 mg/kg i.v., D48
[9] = baboon No 1, 100 mg/kg i.v., D57
[10] = baboon No 1, 100 mg/kg i.v., D62
[11] = baboon No 1, 100 mg/kg i.v., D76
[12] = baboon No 1, 100 mg/kg i.v., D79
[13] = baboon No 1, 100 mg/kg i.v., D85
[14] = baboon No 1, 100 mg/kg i.v., D90
[15] = baboon No 1, 100 mg/kg i.v., D100
[16] = baboon No 1, 100 mg/kg i.v., D105
[17] = baboon No 1, 100 mg/kg i.v., D106
[18] = baboon No 1, 100 mg/kg i.v., D111
[19] = baboon No 1, 100 mg/kg i.v., D122
[20] = baboon No 1, 100 mg/kg i.v., D129
[21] = baboon No 1, 100 mg/kg i.v., D134
[22] = baboon No 1, 100 mg/kg i.v., D140
[23] = baboon No 2, 150 mg/kg i.v., D1
[24] = baboon No 2, 150 mg/kg i.v., D4
[25] = baboon No 2, 150 mg/kg i.v., D11
[26] = baboon No 3, 200 mg/kg i.v., D4
[27] = baboon No 3, 200 mg/kg i.v., D6
[28] = baboon No 3, 200 mg/kg i.v., D12
[29] = baboon No 3, 200 mg/kg i.v., D15
[30] = baboon No 3, 200 mg/kg i.v., D18
[31] = baboon No 3, 200 mg/kg i.v., D24
[32] = baboon No 3, 200 mg/kg i.v., D30
[33] = baboon No 3, 200 mg/kg i.v., D40

Compound: NC1CCCCC1N.O=C([O-])CC(C(=O)[O-])C([O-])C(=O)[O-].[H+].[H+].[Pt+2] (stereo not drawn) [PHIC, cis-isocitrato (1,2-diaminocyclohexane) platinum (II)]
- nephrotoxic effect (100 mg/kg i.v., absence of hydration): no nephrotoxic effect was observed
- day on which creatinine levels return to normal values (200 mg/kg i.v. with hydration): 18 days
- nephrotoxicity (200 mg/kg i.v. with hydration): nephtotoxicity is detected
- vomiting (severity) (100-200 mg/kg i.v.): vomiting was not profuse
- Quick plasma prothrombin time (baboon No 1, 100 mg/kg i.v., D1): 75%
- Creatinine [1]: 110 μmols/l
- Fibrinogen I [1]: 2.25 g/L
- Quick plasma prothrombin time [1]: 80%
- Creatinine [2]: 91 μmols/l
- Fibrinogen I [2]: 2.40 g/L
- Granulocytes [2]: 2480
- Platelets [2]: 526000
- Proaccelerin V [2]: 100%
- Proconvertin VII + Stuart factor X [2]: 70%
- Prothrombin II [2]: 95%
- Quick plasma prothrombin time [2]: 65%
- Weight [2]: 7.7 kg
- Creatinine [3]: 105 μmols/l
- Fibrinogen I [3]: 1.95 g/L
- Granulocytes [3]: 4560
- Platelets [3]: 414000
- Quick plasma prothrombin time [3]: 95%
- Weight [3]: 8.4 kg
- Creatinine [4]: 138 μmols/l
- Fibrinogen I [4]: 1.52 g/L
- Granulocytes [4]: 3969
- Platelets [4]: 414000
- Quick plasma prothrombin time [4]: 85%
- Creatinine [5]: 99 μmols/l
- Fibrinogen I [5]: 1.46 g/L
- Granulocytes [5]: 2989
- Platelets [5]: 362000
- Quick plasma prothrombin time [5]: 85%
- Weight [5]: 8.35 kg
- Creatinine [6]: 85 μmols/l
- Fibrinogen I [6]: 1.85 g/L
- Granulocytes [6]: 4824
- Platelets [6]: 299000
- Quick plasma prothrombin time [6]: 85%
- Creatinine [7]: 102 μmols/l
- Fibrinogen I [7]: 2.72 g/L
- Granulocytes [7]: 4212
- Platelets [7]: 371000
- Quick plasma prothrombin time [7]: 100%
- Creatinine [8]: 136 μmols/l
- Fibrinogen I [8]: 2.70 g/L
- Granulocytes [8]: 3696
- Platelets [8]: 708000
- Quick plasma prothrombin time [8]: 95%
- Weight [8]: 7.6 kg
- Creatinine [9]: 96 μmols/l
- Fibrinogen I [9]: 2.67 g/L
- Granulocytes [9]: 2498
- Platelets [9]: 329000
- Quick plasma prothrombin time [9]: 90%
- Weight (baboon No 1, 100 mg/kg i.v., D58): 8.45 kg
- Creatinine [10]: 136 μmols/l
- Fibrinogen I [10]: 1.86 g/L
- Granulocytes [10]: 3726
- Platelets [10]: 378000
- Quick plasma prothrombin time [10]: 50%
- Creatinine [11]: 121 μmols/l
- Fibrinogen I [11]: 1.75 g/L
- Granulocytes [11]: 1071
- Platelets [11]: 375000
- Quick plasma prothrombin time [11]: 95%
- Creatinine [12]: 138 μmols/l
- Fibrinogen I [12]: 2.10 g/L
- Granulocytes [12]: 2541
- Platelets [12]: 382000
- Quick plasma prothrombin time [12]: 95%
- Weight (baboon No 1, 100 mg/kg i.v., D84): 7.93 kg
- Creatinine [13]: 97 μmols/l
- Fibrinogen I [13]: 2.08 g/L
- Granulocytes [13]: 3599
- Platelets [13]: 549000
- Proaccelerin V [13]: 100%
- Proconvertin VII + Stuart factor X [13]: 90%
- Quick plasma prothrombin time [13]: 85%
- Creatinine [14]: 96 μmols/l
- Granulocytes [14]: 1917
- Platelets [14]: 685000
- Creatinine [15]: 110 μmols/l
- Fibrinogen I [15]: 2.50 g/L
- Granulocytes [15]: 3230
- Platelets [15]: 340000
- Quick plasma prothrombin time [15]: 95%
- Creatinine [16]: 60 μmols/l
- Fibrinogen I [16]: 2.25 g/L
- Granulocytes [16]: 2030
- Platelets [16]: 266000
- Quick plasma prothrombin time [16]: 95%
- Weight [16]: 8.59 kg
- Creatinine [17]: 120 μmols/l
- Fibrinogen I [17]: 2.20 g/L
- Granulocytes [17]: 10120
- Platelets [17]: 231000
- Quick plasma prothrombin time [17]: 75%
- Creatinine [18]: 102 μmols/l
- Fibrinogen I [18]: 2.20 g/L
- Granulocytes [18]: 1121
- Platelets [18]: 345000
- Proaccelerin V [18]: 100%
- Proconvertin VII + Stuart factor X [18]: 39%
- Prothrombin II [18]: 70%
- Quick plasma prothrombin time [18]: 48%
- Fibrinogen I [19]: 2.10 g/L
- Granulocytes [19]: 1232
- Platelets [19]: 348000
- Quick plasma prothrombin time [19]: 100%
- BUN (baboon No 1, 100 mg/kg i.v., D122, normal range 3-7 mmol/l): 4.5 mmol/L
- Creatinine [20]: 90 μmols/l
- Fibrinogen I [20]: 2.15 g/L
- Granulocytes [20]: 5406
- Platelets [20]: 508000
- Quick plasma prothrombin time [20]: 100%
- Weight (baboon No 1, 100 mg/kg i.v., D133): 7.65 kg
- Creatinine [21]: 126 μmols/l
- Granulocytes [21]: 7245
- Platelets [21]: 580000
- Creatinine [22]: 114 μmols/l
- Fibrinogen I [22]: 2.50 g/L
- Granulocytes [22]: 4794
- Platelets [22]: 441000
- Quick plasma prothrombin time [22]: 100%
- creatine level (baboon No 2, 150 mg/kg i.v.): 1552
- death (baboon No 2, 150 mg/kg i.v.): died on D11
- food and water intake (baboon No 2, 150 mg/kg i.v.): neither eaten nor drunk for 11 days
- Creatinine [23]: 96 μmols/l
- Fibrinogen I [23]: 1.46 g/L
- Granulocytes [23]: 9672
- Platelets [23]: 261000
- Proaccelerin V [23]: 70%
- Proconvertin VII + Stuart factor X [23]: 62%
- Prothrombin II [23]: 42%
- Quick plasma prothrombin time [23]: 60%
- Creatinine [24]: 245 μmols/l
- Fibrinogen I [24]: 2.82 g/L
- Granulocytes [24]: 1988
- Platelets [24]: 212000
- Quick plasma prothrombin time [24]: 85%
- Creatinine [25]: 1552 μmols/l
- Fibrinogen I [25]: 4.20 g/L
- Granulocytes [25]: 555
- Platelets [25]: 174000
- Proaccelerin V [25]: 100%
- Proconvertin VII + Stuart factor X [25]: 55%
- Prothrombin II [25]: 55%
- Quick plasma prothrombin time [25]: 55%
- Weight [25]: 5.5 kg
- Creatinine [26]: 140 μmols/l
- Fibrinogen I [26]: 2.70 g/L
- Granulocytes [26]: 4536
- Platelets [26]: 70000
- Proaccelerin V [26]: 100%
- Proconvertin VII + Stuart factor X [26]: < 5%
- Prothrombin II [26]: 30%
- Quick plasma prothrombin time [26]: 10%
- Weight [26]: 6.25 kg
- Creatinine [27]: 350 μmols/l
- Fibrinogen I [27]: 3.00 g/L
- Granulocytes [27]: 5236
- Platelets [27]: 208000
- Proaccelerin V [27]: 100%
- Proconvertin VII + Stuart factor X [27]: 25%
- Prothrombin II [27]: 25%
- Quick plasma prothrombin time [27]: 30%
- Creatinine [28]: 646 μmols/l
- Fibrinogen I [28]: 4.80 g/L
- Granulocytes [28]: 7905
- Platelets [28]: 241000
- Quick plasma prothrombin time [28]: 85%
- Weight [28]: 5.31 kg
- Creatinine [29]: 265 μmols/l
- Fibrinogen I [29]: 3.85 g/L
- Granulocytes [29]: 3550
- Platelets [29]: 114000
- Quick plasma prothrombin time [29]: 90%
- Creatinine [30]: 118 μmols/l
- Fibrinogen I [30]: 2.60 g/L
- Granulocytes [30]: 722
- Platelets [30]: 312000
- Quick plasma prothrombin time [30]: 100%
- Creatinine [31]: 97 μmols/l
- Fibrinogen I [31]: 2.00 g/L
- Granulocytes [31]: 4872
- Platelets [31]: 366000
- Quick plasma prothrombin time [31]: 100%
- Weight [31]: 5.6 kg
- Creatinine [32]: 104 μmols/l
- Fibrinogen I [32]: 2.25 g/L
- Granulocytes [32]: 10752
- Platelets [32]: 457000
- Quick plasma prothrombin time [32]: 95%
- Weight [32]: 5.9 kg
- Creatinine [33]: 94 μmols/l
- Fibrinogen I [33]: 1.50 g/L
- Granulocytes [33]: 4731
- Platelets [33]: 299000
- Quick plasma prothrombin time [33]: 95%
- Weight [33]: 6.33 kg
- toxicity (in words) (baboons): Extremely low toxicity
